Laboratory results taken from patent US20250338846A1, “COMPOSITIONS HAVING PESTICIDAL UTILITY AND PROCESSES RELATED THERETO” (CORTEVA AGRISCIENCE, LLC, priority 2022, published 2025).

What was measured:
[1] = system: Diamondback Moth (Plutella xylostella, PLUTMA); test: Bioassay 6: Diamondback Moth, artificial lepidopteran diet, live larvae after 5 days; type: in vivo; settings: DBM; F1 alone 0.4 % w/v
Method: where X=No. of live nymphs on solvent check and Y=No. of live nymphs on treated bean segments. In Table B5 the “Expected % Control” was calculated using the method described in Colby S. R., Weeds, 1967, 15, 20-22. Bioassay 6: Beet Armyworm (Spodoptera exigua, LAPHEG) (BAW), and Diamondback Moth (Plutella xylostella, PLUTMA) (DBM).
Stock solutions were prepared with Formula One as well as for each of the active ingredients individually. Test solutions were prepared from the stock solutions. Test solutions were prepared containing Formula One, the individual active ingredients, and mixtures of Formula One with each of the active ingredients. The test solution for Formula One was prepared by adding 500 μL of the stock solution to a 25 mL glass vial, then adding 500 μL of a 9:1 mixture of acetone: water. The individual active ingredients were prepared by adding 500 μL of stock solution to a 25 mL glass vial, then adding 500 μL of a 9:1 mixture of acetone: water. The test solutions containing mixtures of Formula One and the individual active ingredients were prepared by adding 500 μL of the active ingredient stock solution to a 25 mL glass vial, followed by 500 μL of the Formula One stock solution, creating a test solution containing 4000 ppm Formula One and 0.4% (w/v) of the active ingredient. Each test solution was serially diluted to create desired doses of test solutions (0.4% (w/v), 0.04% (w/v), 0.004% (w/v), 0.0004% (w/v), 0.00004% (w/v), and 0.000004% (w/v)). In test solutions containing mixtures of Formula One and the active ingredients, the active ingredients were diluted as described above, but the Concentration of Formula One was held constant (0.4% (w/v)). The highest dose test solution (0.4% (w/v)) was discarded, leaving 5 test solution concentrations used in the test.
The test solutions were tested against BAW and DBM using the following procedure: An artificial lepidopteran diet (Multispecies Lepidopteran Diet, Southland Products) was distributed in 128-cell bioassay trays (Frontier Agricultural Sciences™). 50 μL of test solution was pipetted into a cell in the bioassay tray. (The test solution doses of 0.04% (w/v), 0.004% (w/v), 0.0004% (w/v), 0.00004% (w/v), and 0.000004% (w/v) translated to concentrations of 5, 0.5, 0.05, 0.005, and 0.0005 ug/cm^2 on the diet, respectively.) A reference treatment (solvent check) was treated with the diluent only. […] After 5 days, the number of live larvae were recorded from each cell and percent control was measured using Abbott's correction formula (W. S. Abbott, J. Econ. Entomol. 18 (1925), pp. 265-267) as follows:
where X=No. of live larvae on solvent check and Y=No. of live larvae on treated diet. In Table B6 the “Expected % Control” was calculated using the method described in Colby S. R., Weeds, 1967, 15, 20-22. […]

[2] = system: Diamondback Moth (Plutella xylostella, PLUTMA); test: Bioassay 9: Diamondback Moth, leaves of track-sprayed cabbage plants, mortality and feeding damage scored; type: in vivo

CCN(C(=O)CCS(C)(=O)=O)c1sc(-c2cccnc2)nc1Cl [Formula F1, N-(4-chloro-2-(pyridin-3-yl)thiazol-5-yl)-N-ethyl-3-(methylsulfonyl)propanamide]
Average % Control F1 [1]: 0% | Average % Control F1 ([2]; F1 alone 10 (10^-5) Wt %): 0.00% | Average % Control F1 ([2]; Feeding damage control, F1 alone 20 (10^-5) Wt %): 17.64%
